Results on 4 substances are retold here after US11197914B2, “GLP-1R/GCGR dual target agonist polypeptide for treatment of fatty liver diseases, hyperlipemia and arteriosclerosis” (Shenzhen Turier Biotech Co., Ltd., priority 2016, dated 2021).

*1 amine or outer side, *2 acyl side, *3 side chain or, on linkers, in order; H or OH if unused. Primed or numbered codes have the meaning given here. Where no end group is shown, it is not given here. Side-chain parts run from the residue outwards. [ ]: non-standard residue; d: D form. The star is where a group is joined. γGlu = O=C(O)[C@H](CCC(=O)[*:2])N[*:1]; Stearoyl = CCCCCCCCCCCCCCCCCC(=O)*; Palmitoyl = CCCCCCCCCCCCCCCC(=O)*; PEG2′ = not defined here

Test [1] concerns Hepatic stellate cell strain LX-2. The test can be described thus: In vitro inhibition of hepatic fibrosis: expression of LX-2 cell activation marker α-SMA (Western Blot, α-SMA/β-actin). Format: cell-based, human. To be noted: LX-2 cells; for Relative expression of α-SMA (α-SMA/β-actin, %): 1 μM, 48 hours, negative control = 100%. As to the method:
Hepatic stellate cell strain LX-2 was selected to study and observe the effect of different doses of test substances on the expression of LX-2 cell activation marker […]. Hepatic stellate cell LX-2 was laid on 35 mm cell culture plate, cultured with DMEM (high glucose)+10% FBS+1% double-antibody culture medium (Thermo Fisher), placed overnight when the cells grew to 70% convergence at 37° C. and under the condition of 5% CO2, and treated with the above compounds 1-37 (dissolved in PBS) for 48 hours the next day morning to extract cell protein, carry out Western Blot, and take β-actin as internal reference and analyze the expression quantities of α-SMA and β-actin by a gray level of Image J 1.50i. PBS with the same volume as that in experimental group was added in negative control. […] The integrating gray level of α-SMA/β-actin in the negative control group was 100% to analyze the in vitro inhibition activity of hepatic fibrosis of tested polypeptide.
In general terms: A western blot detects proteins with antibodies after separation by electrophoresis.

Test [2] deals with CCl4-induced hepatic fibrosis mice. Nature of the test: CCl4-induced hepatic fibrosis in mice. As to conditions: 500 μg/kg subcutaneous once every two days, 6 weeks. The class given is in vivo, C57 mice. As to the method:
6-8-week-old C57 mice with body weight of 20-25 g at SPF level were provided by Guangdong Medical Laboratory Animal Center and tested by SPF level laboratory in Laboratory Animal Center of Guangdong Pharmaceutical University. C57 mice were divided into control group, hepatic fibrosis model group and treatment group, 8 mice for each group. A mouse was subject to intraperitoneal injection with 20% CCl4 (2 mL/kg, diluted with olive oil at ratio of 1:4) twice a week for continuous 6 weeks to form a stable hepatic fibrosis animal model. For the treatment group, one of subcutaneous injection compounds 2, 6 and 22 with 500 μg/kg of body weight was used respectively once every two days for continuous 6 weeks. Olive oil with same volume and same frequency was administered for the control group and stopped until the end of 6-week experiment. After the end of the experiment, the mice were subject to anesthesia to collect serum and liver specimens. The liver was fixed with 10% formalin and embedded with paraffin.

For test [3], the system named is high fat diet-induced hyperlipidemic mice. The test can be described thus: High fat diet-induced NAFLD and hyperlipemia in mice. Format: in vivo, C57 mice. To be noted: 500 μg/kg subcutaneous once every two days, 12 weeks. The protocol:
6-8-week-old C57 mice with body weight of 20-25 g at SPF level were provided by Guangdong Medical Laboratory Animal Center and tested by SPF level laboratory in Laboratory Animal Center of Guangdong Pharmaceutical University. C57 mice were divided into control group, hepatic fibrosis model group and treatment group, 8 mice for each group. The mice were fed with high fat diet (HFD) for 12 weeks. For the treatment group, subcutaneous injection compounds 2 and 6 with 500 μg/kg of body weight were used once every two days for continuous 12 weeks. PBS with same volume and same frequency was administered for the control group. After the end of the experiment, the mice were subject to anesthesia to collect serum and liver specimens.

Test [4] relates to db/db diabetic obese mice. The class given is in vivo. As to conditions: 10 μg/mouse subcutaneous once every two days, 18 days. As to the method:
12-week-old db/db diabetic obese mice were randomly grouped into 3 groups (12-hour fasting before grouping), 6 mice in each group. Mice in each group were injected subcutaneously at a dose of 10 μg/mouse, and mice in the blank group were injected subcutaneously with PBS. The volume for each group was 0.25 ml/mouse once every two days (at 48-hour interval) for 18 days. At the end of the experiment, blood was taken from the orbital venous plexus of each mouse to measure glycosylated hemoglobin (HbAlc), insulin (INS), triglyceride (TG) and total cholesterol (TC) levels in the serum of the mouse. The liver, pancreas, heart, lungs and spleen were taken for HE pathological staining at the same time. GraphPad Prismversion6 software was used for statistical analysis.

“His-(D-Ser)-Gln-Gly-Thr-Phe-Thr-Ser-Asp-Tyr-Ser-Lys-Tyr-Leu-Asp-Ser-Lys(PEG2-PEG2-γGlu-CO(CH2)16CH3)-Ala-Ala-His-Asp-Phe-Val-Glu-Trp-Leu-Leu-Asn-Gly-Gly-Pro-Ser-Ser-Gly-Ala-Pro-Pro-Pro-Ser-NH2 (H[dS]QGTFTSDYSKYLDSK([PEG2′-PEG2′-γGlu-Stearoyl])AAHDFVEWLLNGGPSSGAPPPS-NH2) [Compound 22]”: the “Relative expression of α-SMA (α-SMA/β-actin, %)” value in test [1] is reported as 90.56%. Besides, in test [2], the “ALT level of serum” value is given as “obviously reduce”; the “CCl4-induced liver injury and fibrosis stage (HE, Sirius Red)” value is “obviously improved”.
With “His-(D-Ser)-Gln-Gly-Thr-Phe-Thr-Ser-Asp-Tyr-Ser-Lys-Tyr-Leu-Asp-Lys(PEG2-PEG2-γGlu-CO(CH2)14CH3)-Arg-Arg-Ala-Gln-Asp-Phe-Val-Gln-Trp-Leu-Met-Asn-Thr-Gly-Gly-Pro-Ser-Ser-Gly-Ala-Pro-Pro-Pro-Ser-NH2 (H[dS]QGTFTSDYSKYLDK([PEG2′-PEG2′-γGlu-Palmitoyl])RRAQDFVQWLMNTGGPSSGAPPPS-NH2) [Compound 6]”, in test [1], the “Inhibition of LX-2 cell activation marker α-SMA (in words, from Table 2)” value is listed as “obviously reduce” and the “Relative expression of α-SMA (α-SMA/β-actin, %)” value worked out at 41.19%. Also, in test [2], the “ALT level of serum” value is reported as “obviously reduce”; the “CCl4-induced liver injury and fibrosis stage (HE, Sirius Red)” value is “obviously improved”. In test [3], the “Fatty liver complicated by hepatic fibrosis (Sirius red)” value is “effectively inhibit fatty liver complicated by hepatic fibrosis”, the “HFD-induced increase of body weight” value was “effectively inhibit”, the “Hepatic triglyceride (TG) content” value is “effectively reduce” and the “Liver lipid deposition (Oil Red O)” value is recorded as “effectively reduce”. In test [3], the “Liver lipoid degeneration and non-alcoholic steatohepatitis (liver tissue biopsy)” value was “inhibit liver lipoid degeneration and non-alcoholic steatohepatitis”; the “Treatment effect on liver lipid deposition and hepatic TG compared with Liraglutide” value is recorded as “obviously better than Liraglutide”. Also, the “Control of body weight, comparison between treatments” value in test [3] (compared with liraglutide) is reported as “most obviously”. Besides, in test [4], the “Atrophy lesions of pancreatic islets (HE staining)” value is given as “significantly improve”; the “Inhibition of liver lipoid vacuolar degeneration and lipid inflammation, comparison between compounds” value is “better inhibition effect”; the “Liver lipoid vacuolar degeneration and lipid inflammation (HE staining)” value is given as “significantly inhibit”; the “Total cholesterol (TC) level in serum” value is given as “obviously inhibit”. In test [4], the “Triglyceride (TG) level in serum” value is on record as “obviously inhibit”. Further, in test [4] (vs blank group), the “Glycosylated hemoglobin (HbAlc) level in serum” value was “significantly reduced” and the “Insulin (INS) level in serum” value is listed as “up-regulated”.
Take “His-(D-Ser)-Gln-Gly-Thr-Phe-Thr-Ser-Asp-Tyr-Ser-Lys-Tyr-Leu-Asp-Lys(PEG2-PEG2-γGlu-CO(CH2)16CH3)-Arg-Arg-Ala-Gln-Asp-Phe-Val-Gln-Trp-Leu-Met-Asn-Thr-Gly-Gly-Pro-Ser-Ser-Gly-Ala-Pro-Pro-Pro-Ser-NH2 (H[dS]QGTFTSDYSKYLDK([PEG2′-PEG2′-γGlu-Stearoyl])RRAQDFVQWLMNTGGPSSGAPPPS-NH2) [Compound 36]”: in test [1], the “Inhibition of LX-2 cell activation marker α-SMA (in words, from Table 2)” value is “obviously reduce” and the “Relative expression of α-SMA (α-SMA/β-actin, %)” value came to 62.49%.
Turning to “His-(D-Ser)-Gln-Gly-Thr-Phe-Thr-Ser-Asp-Tyr-Ser-Lys-Tyr-Leu-Asp-Glu-Lys-Ala-Ala-Lys(PEG2-PEG2-γGlu-CO(CH2)16CH3)-Glu-Phe-Ile-Glu-Trp-Leu-Leu-Asn-Gly-Gly-Pro-Ser-Ser-Gly-Ala-Pro-Pro-Pro-Ser-NH2 (H[dS]QGTFTSDYSKYLDEKAAK([PEG2′-PEG2′-γGlu-Stearoyl])EFIEWLLNGGPSSGAPPPS-NH2) [Compound 28]”, the “Relative expression of α-SMA (α-SMA/β-actin, %)” value in test [1] was determined as 87.62%.
